Assay results taken from patent publication US12714735B2, “Herbal composition for cancer” (priority 2024, dated 2026).
Converted amounts (≈) assume the structure as drawn. “And” between values parts separate entries of the source, which are not always exact repeats. Equal values may be shown once.

Assays:
[1] = Free radical scavenging activity (antioxidant assay); format: biochemical
From the text: Evaluation of in-vitro cytotoxic potential of herbal products in human Lung cancer cell line (A549) by antioxidant assay: […] These substances may have potential as cytotoxic agents for further investigation. In an embodiment, free radical scavenging activity as per IC50 value: […]

MTT cytotoxicity assay = format: cell-based; details: human
Procedure: Human Lung carcinoma epithelial cell line, A549 cell line was obtained from the National Centre for Cell Sciences (NCCS, Pune). The cell line was cultured in DMEM (Himedia), supplemented with 10% fetal bovine serum (Sigma-Aldrich), 25 U/ml penicillin, and […] streptomycin (Himedia) at 37° ° C. in a water-saturated atmosphere of 95% air and 5% CO2. The experiments were repeated three times and average OD (absorbance values) were taken and plotted
8 test compounds (Wheatgrass, Ginger, Garlic, Tulsi, Green tea, Ashwagandha, 95% extract of Piperine and Turmeric) were obtained from the formulation department of Dabur Research Foundation, Sahibabad, Ghaziabad, U.P. 201010. 100 mg of the test compounds was weighed and dissolved in DMSO. After that, it was vortexed thoroughly followed by centrifugation. The clear supernatant was then used for further experimentation.
Cell culture Human Lung carcinoma epithelial cell line, A549 cell line was obtained from the National Centre for Cell Sciences (NCCS, Pune). The cell line was cultured in DMEM (Himedia), supplemented with 10% fetal bovine serum (Sigma-Aldrich), 25 U/ml penicillin, and […] streptomycin (Himedia) at 37° C. in a water-saturated atmosphere of 95% air and 5% CO2.
The effect of DMSO extracts of 8 test compounds (Wheatgrass, Ginger, Garlic, Tulsi, Green tea, Ashwagandha, 95% extract of Piperine and Turmeric) on A549 human lung carcinoma epithelial cell line was observed by MTT (3-(4,5-dimethylthiazol-2-yl)-2,5-diphenyl tetrazolium bromide) assay. MTT reagent was purchased from Sigma (Darmstadt, Germany). Cells were counted on a hemocytometer and 10,000 cells/well were plated in 96 well plate in 180 μl of complete media (containing 10% of FBS).
Cells were treated with different concentrations (0.01, 0.1, 1, 10, 50, 100 μg/ml) of Wheatgrass, Ginger, Garlic, Tulsi, Green tea & Ashwagandha extracts and at concentrations (0.001, 0.01, 0.1, 1, 10 and 50 μg/ml) of 95% extract of Piperine and Turmeric for 72 hr. After the stipulated time, MTT solution (5 mg/ml) was added to each well and incubated for 3 hr. The purple-colored precipitate of formazan was dissolved in 150 μl of DMSO (Sigma-Aldrich) by proper mixing. The color absorbance of each well was recorded at 570 nm in a Bioteck microplate reader with a reference serving as blank. Then, IC50 values of DMSO extracts of 8 test compounds were calculated.
Statistical analysis MTT Data were analyzed by using Microsoft office Excel Software.

Structure (SMILES) | IC 50 value (free radical scavenging) [1] [µg/mL] | % Inhibition ([1]; 1 μg/ml) [%] | % Inhibition ([1]; 10 μg/ml) | % Inhibition ([1]; 20 μg/ml) | % Inhibition ([1]; 30 μg/ml) | % Inhibition ([1]; 40 μg/ml) | % Inhibition ([1]; 50 μg/ml) | % Inhibition ([1]; 100 μg/ml) | IC50 at 72 h (MTT cytotoxicity assay) [µM] | cytotoxicity at 72 h, 0.1 µM (MTT cytotoxicity assay) [%] | cytotoxicity at 72 h, 1 µM (MTT cytotoxicity assay) [%] | cytotoxicity at 72 h, 10 µM (MTT cytotoxicity assay) [%] | cytotoxicity at 72 h, 25 µM (MTT cytotoxicity assay) [%] | cytotoxicity at 72 h, 50 µM (MTT cytotoxicity assay) [%]
O=C1O[C@H]([C@@H](O)CO)C(O)=C1O [Ascorbic Acid] | 37.54 (≈ 213 µM) | 2.3 | 13% and 13.2% | 24% and 24.4% | 38% and 37.6% | 51% and 50.8% | 63% and 62.6% | 90% and 90.4% |  |  |  |  |  | 
COc1cccc2c1C(=O)c1c(O)c3c(c(O)c1C2=O)C[C@@](O)(C(=O)CO)C[C@@H]3O[C@H]1C[C@H](N)[C@H](O)[C@H](C)O1 [Doxorubicin] |  |  |  |  |  |  |  |  | 9.39 | 11.7 | 19.3 | 51 | 66.2 | 69.2
